This assay deals with SIK2 (Homo sapiens, UniProt Q9H0K1). The experiment in a line: SIK2 Enzymatic Assay Version 1 (ADP Glo). It counts as biochemical. Particulars: enzyme 0.6 nM, 160 μM ATP and 140 μM HDAC5tide (each 2× final concentration); 30 minutes pre-incubation, 4 hours; ADPGlo luminescence; read-out: SIK2 ADP Glo IC50 (μM) (Test Example 1). As to the method: All steps were performed at room temperature. Compounds were pre-plated onto an assay plate using an Echo acoustic dispenser (Labcyte, E550 or E555) at 20 nL per well. Enzyme prepared in Assay Buffer at 0.6 nM (2× final concentration) was added at 2 μL per well using the Multidrop Combi (Thermo Fisher—used for all additions in this assay) to the assay plate, spun for 1 min at 800-850 rpm (Allegra 6KR Beckman Coulter centrifuge), and incubated with compound for 30 minutes.
One column of wells was dedicated to a no-peptide negative control (containing only ATP). ADPGlo Reagent (prepared and aliquoted as per manufacturer instructions) was then added at 2 μL per well, spun and incubated for 40 min. ADPGlo Detection (prepared and aliquoted as per manufacturer instructions) was added at 2 μL per well to the assay plate, which was spun and incubated for at least 30 min. The plate was then read on the Pherastar (BMG Labtech) using a luminescence read. Gain was set by the 0.1 mM concentration of ADP wells in the ADP/ATP standard curve plate generated as per manufacturer instructions.
In general terms: In ADP-Glo the light output rises with the ADP produced.

Sequence of SIK2 (Q9H0K1 whole entry, species assumed): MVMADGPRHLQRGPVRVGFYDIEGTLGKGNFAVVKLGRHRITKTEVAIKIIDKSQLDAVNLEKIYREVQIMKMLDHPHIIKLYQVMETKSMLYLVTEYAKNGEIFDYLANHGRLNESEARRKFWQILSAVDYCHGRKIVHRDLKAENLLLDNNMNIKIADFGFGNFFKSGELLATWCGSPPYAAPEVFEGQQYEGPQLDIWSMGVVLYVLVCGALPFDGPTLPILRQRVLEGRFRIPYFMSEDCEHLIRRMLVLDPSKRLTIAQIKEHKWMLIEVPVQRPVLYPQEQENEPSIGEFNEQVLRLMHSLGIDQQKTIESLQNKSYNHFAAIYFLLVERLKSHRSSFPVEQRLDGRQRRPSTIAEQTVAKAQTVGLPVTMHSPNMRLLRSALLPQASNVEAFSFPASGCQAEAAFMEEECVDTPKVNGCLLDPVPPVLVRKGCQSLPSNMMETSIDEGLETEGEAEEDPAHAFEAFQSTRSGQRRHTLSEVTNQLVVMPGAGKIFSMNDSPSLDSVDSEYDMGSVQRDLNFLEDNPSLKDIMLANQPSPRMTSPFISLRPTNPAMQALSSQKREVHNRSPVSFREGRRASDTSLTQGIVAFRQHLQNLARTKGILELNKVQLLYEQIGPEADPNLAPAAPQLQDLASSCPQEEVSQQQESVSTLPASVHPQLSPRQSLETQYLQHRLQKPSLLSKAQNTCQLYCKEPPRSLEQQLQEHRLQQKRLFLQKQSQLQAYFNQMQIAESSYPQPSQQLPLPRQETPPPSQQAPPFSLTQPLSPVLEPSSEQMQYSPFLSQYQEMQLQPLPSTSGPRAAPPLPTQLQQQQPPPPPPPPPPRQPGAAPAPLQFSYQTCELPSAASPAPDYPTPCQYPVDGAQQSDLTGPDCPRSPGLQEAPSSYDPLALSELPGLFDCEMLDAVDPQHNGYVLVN

A word on the IC50: it is the point on the concentration scale where inhibition reaches its midpoint. For `N#Cc1cc(-c2ccn3nc(NC(=O)C4CC4)cc3c2)c(N2CCC(O)(C(F)(F)F)C2)cn1` (racemic) [Example 87, (rac-)-N-[5-[2-cyano-5-[3-hydroxy-3-(trifluoromethyl)pyrrolidin-1-yl]-4-pyridyl]pyrazolo[1,5-a]pyridin-2-yl]cyclopropanecarboxamide], the IC50 was 0.118 µM. Under `N#Cc1cc(-c2ccn3nc(NC(=O)C4CC4)cc3c2)c(O[C@H]2CCN[C@@H](C(F)(F)F)C2)cn1` (single isomer, unassigned) [Example 14, N-(5-(2-cyano-5-(((2*R,4*S)-2-(trifluoromethyl)piperidin-4-yl)oxy)pyridin-4-yl)pyrazolo[1,5-a]pyridin-2-yl)cyclopropanecarboxamide] stands 0.0249 µM; under `N#Cc1cc(-c2ccn3nc(NC(=O)C4CC4)cc3c2)c(O[C@H]2C[C@H]3C[C@@H]2CN3)cn1` (single isomer, unassigned) [Example 18, N-[5-[5-[[(1*R,4*R,5*S)-2-azabicyclo[2.2.1]heptan-5-yl]oxy]-2-cyano-4-pyridyl]pyrazolo[1,5-a]pyridin-2-yl]cyclopropanecarboxamide], 0.00158 µM; under `CC(C)(C)OC(=O)N1CCC(COc2cnc(C#N)cc2-c2ccn3nc(NC(=O)C4CC4)cc3c2)C1` (stereo in doubt) [Example 35, tert-butyl (3R)-3-[[6-cyano-4-[2-(cyclopropanecarbonylamino)pyrazolo[1,5-a]pyridin-5-yl]-3-pyridyl]oxymethyl]pyrrolidine-1-carboxylate], 0.0354 µM.

`CN(C)CCNc1cnc(C#N)cc1-c1ccn2nc(NC(=O)C3CC3)cc2c1` [Example 2, N-[5-[2-cyano-5-(2-dimethylaminoethylamino)-4-pyridyl]pyrazolo[1,5-a]pyridin-2-yl]cyclopropanecarboxamide]: the IC50 was 0.0691 µM. Under `N#Cc1cc(-c2ccn3nc(NC(=O)C4CC4)cc3c2)c(N2CC(CO)C2)cn1` [Example 3, N-[5-[2-cyano-5-[3-(hydroxymethyl)azetidin-1-yl]-4-pyridyl]pyrazolo[1,5-a]pyridin-2-yl]cyclopropanecarboxamide] stands 0.0183 µM; under `N#Cc1cc(-c2ccn3nc(NC(=O)C4CC4)cc3c2)c(OC2(C(F)(F)F)CCNCC2)cn1` [Example 9, N-(5-(2-cyano-5-((4-(trifluoromethyl)piperidin-4-yl)oxy)pyridin-4-yl)pyrazolo[1,5-a]pyridin-2-yl)cyclopropanecarboxamide], 0.152 µM; under `CN1CCOC[C@H](Oc2cnc(C#N)cc2-c2ccn3nc(NC(=O)C4CC4)cc3c2)C1` [Example 12, N-[5-[2-cyano-5-[[(6R)-4-methyl-1,4-oxazepan-6-yl]oxy]-4-pyridyl]pyrazolo[1,5-a]pyridin-2-yl]cyclopropanecarboxamide], 0.0133 µM. As for `N#Cc1cc(-c2ccn3nc(NC(=O)C4CC4)cc3c2)c(O[C@@H]2CNCCOC2)cn1` [Example 21, N-[5-[2-cyano-5-[[(6R)-1,4-oxazepan-6-yl]oxy]-4-pyridyl]pyrazolo[1,5-a]pyridin-2-yl]cyclopropanecarboxamide], the figure is 0.0213 µM. On to `N#Cc1cc(-c2ccn3nc(NC(=O)C4CC4)cc3c2)c(OC[C@@H]2CC[C@@H](N)C2)cn1` [Example 22, N-[5-[5-[[(1R,3R)-3-aminocyclopentyl]methoxy]-2-cyano-4-pyridyl]pyrazolo[1,5-a]pyridin-2-yl]cyclopropanecarboxamide], for which the IC50 stood at 0.00121 µM. On to `N#Cc1cc(-c2ccn3nc(NC(=O)C4CC4)cc3c2)c(O[C@@H]2CCN(C3CC3)C2)cn1` [Example 25, N-[5-[2-cyano-5-[(3R)-1-cyclopropylpyrrolidin-3-yl]oxy-4-pyridyl]pyrazolo[1,5-a]pyridin-2-yl]cyclopropanecarboxamide], for which the IC50 worked out at 0.00145 µM. In the case of `CN1CCOC[C@@H](Oc2cnc(C#N)cc2-c2ccn3nc(NC(=O)C4CC4)cc3c2)C1` [Example 26, N-[5-[2-cyano-5-[[(6S)-4-methyl-1,4-oxazepan-6-yl]oxy]-4-pyridyl]pyrazolo[1,5-a]pyridin-2-yl]cyclopropanecarboxamide], the IC50 was found to be 0.0123 µM. Under `CN1C[C@@H](Oc2cnc(C#N)cc2-c2ccn3nc(NC(=O)C4CC4)cc3c2)C[C@@H](C(F)(F)F)C1` [Example 28, N-[5-[2-cyano-5-[[(3S,5R)-1-methyl-5-(trifluoromethyl)-3-piperidyl]oxy]-4-pyridyl]pyrazolo[1,5-a]pyridin-2-yl]cyclopropanecarboxamide] stands 0.00922 µM; under `CC(C)(C)OC(=O)N1CC2(CC(Oc3cnc(C#N)cc3-c3ccn4nc(NC(=O)C5CC5)cc4c3)C2)C1` [Example 34, tert-butyl 2-[[6-cyano-4-[2-(cyclopropanecarbonylamino)pyrazolo[1,5-a]pyridin-5-yl]-3-pyridyl]oxy]-6-azaspiro[3.3]heptane-6-carboxylate], 0.0227 µM; under `CC(C)(C)OC(=O)COc1cnc(C#N)cc1-c1ccn2nc(NC(=O)C3CC3)cc2c1` [Example 55, tert-butyl 2-[[6-Cyano-4-[2-(cyclopropanecarbonylamino)pyrazolo[1,5-a]pyridin-5-yl]-3-pyridyl]oxy]acetate], 0.0096 µM. Under `N#Cc1cc(-c2ccn3nc(NC(=O)C4CC4)cc3c2)c(OCc2ccc(C(F)(F)F)nc2)cn1` [Example 61, N-[5-[2-cyano-5-[[6-(trifluoromethyl)-3-pyridyl]methoxy]-4-pyridyl]pyrazolo[1,5-a]pyridin-2-yl]cyclopropanecarboxamide] stands 0.0103 µM; under `N#Cc1cc(-c2ccn3nc(NC(=O)C4CC4)cc3c2)c(OCc2ccnc(C(F)(F)F)c2)cn1` [Example 62, N-[5-[2-cyano-5-[[2-(trifluoromethyl)-4-pyridyl]methoxy]-4-pyridyl]pyrazolo[1,5-a]pyridin-2-yl]cyclopropanecarboxamide], greater than 5 µM; under `CN1CCC[C@H](Oc2cnc(C#N)cc2-c2ccn3nc(NC(=O)C4CC4)cc3c2)C1` [Example 65, N-[5-[2-cyano-5-[[(3S)-1-methyl-3-piperidyl]oxy]-4-pyridyl]pyrazolo[1,5-a]pyridin-2-yl]cyclopropanecarboxamide], 0.00871 µM. Regarding `CN1CC[C@H](CNc2cnc(C#N)cc2-c2ccn3nc(NC(=O)C4CC4)cc3c2)C1` [Example 71, N-[5-[2-cyano-5-[[(3R)-1-methylpyrrolidin-3-yl]methylamino]-4-pyridyl]pyrazolo[1,5-a]pyridin-2-yl]cyclopropanecarboxamide], the IC50 worked out at 0.0577 µM.

In the case of `CN(C)CC1CN(c2cnc(C#N)cc2-c2ccn3nc(NC(=O)C4CC4)cc3c2)C1` [Example 72, N-[5-[2-cyano-5-[3-(dimethylaminomethyl)azetidin-1-yl]-4-pyridyl]pyrazolo[1,5-a]pyridin-2-yl]cyclopropanecarboxamide], the IC50 turned out to be 0.15 µM. Under `CNC(=O)C1CN(c2cnc(C#N)cc2-c2ccn3nc(NC(=O)C4CC4)cc3c2)C1` [Example 73, 1-[6-cyano-4-[2-(cyclopropanecarbonylamino)pyrazolo[1,5-a]pyridin-5-yl]-3-pyridyl]-N-methyl-azetidine-3-carboxamide] stands 0.0846 µM; under `CC(C)(O)C1CN(c2cnc(C#N)cc2-c2ccn3nc(NC(=O)C4CC4)cc3c2)C1` [Example 74, N-[5-[2-cyano-5-[3-(1-hydroxy-1-methyl-ethyl)azetidin-1-yl]-4-pyridyl]pyrazolo[1,5-a]pyridin-2-yl]cyclopropanecarboxamide], 0.00654 µM; under `N#Cc1cc(-c2ccn3nc(NC(=O)C4CC4)cc3c2)c(N2CC(O)(C(F)(F)F)C2)cn1` [Example 75, N-[5-[2-cyano-5-[3-hydroxy-3-(trifluoromethyl)azetidin-1-yl]-4-pyridyl]pyrazolo[1,5-a]pyridin-2-yl]cyclopropanecarboxamide], 0.398 µM. As for `N#Cc1cc(-c2ccn3nc(NC(=O)C4CC4)cc3c2)c(NCC2CC2)cn1` [Example 76, N-[5-[2-cyano-5-(cyclopropylmethylamino)-4-pyridyl]pyrazolo[1,5-a]pyridin-2-yl]cyclopropanecarboxamide], the figure is 0.0255 µM. Take `Cn1ccc(Nc2cnc(C#N)cc2-c2ccn3nc(NC(=O)C4CC4)cc3c2)n1` [Example 77, N-[5-[2-cyano-5-[(1-methylpyrazol-3-yl)amino]-4-pyridyl]pyrazolo[1,5-a]pyridin-2-yl]cyclopropanecarboxamide]: the IC50 worked out at 0.242 µM. As for `N#Cc1cc(-c2ccn3nc(NC(=O)C4CC4)cc3c2)c(NC2CCCC2)cn1` [Example 78, N-[5-[2-cyano-5-(cyclopentylamino)-4-pyridyl]pyrazolo[1,5-a]pyridin-2-yl]cyclopropanecarboxamide], the figure is 0.0143 µM; as for `Cn1cc(Nc2cnc(C#N)cc2-c2ccn3nc(NC(=O)C4CC4)cc3c2)cn1` [Example 79, N-[5-[2-cyano-5-[(1-methylpyrazol-4-yl)amino]-4-pyridyl]pyrazolo[1,5-a]pyridin-2-yl]cyclopropanecarboxamide], 0.389 µM. With `N#Cc1cc(-c2ccn3nc(NC(=O)C4CC4)cc3c2)c(NC2CC2)cn1` [Example 80, N-[5-[2-cyano-5-(cyclopropylamino)-4-pyridyl]pyrazolo[1,5-a]pyridin-2-yl]cyclopropanecarboxamide], the half-inhibitory concentration (IC50) stood at 0.0703 µM. As for `N#Cc1cc(-c2ccn3nc(NC(=O)C4CC4)cc3c2)c(O[C@H]2CNCCOC2)cn1` [Example 84, N-[5-[2-cyano-5-[[(6S)-1,4-oxazepan-6-yl]oxy]-4-pyridyl]pyrazolo[1,5-a]pyridin-2-yl]cyclopropanecarboxamide], the figure is 0.014 µM.

(Values after patent publication US20240158392A1 (Janssen Biotech, Inc., priority 2021, published 2024).)
